Source: patent US4119667A, “Haloaniline derivatives as plant growth modifiers” (Rohm and Haas Company, priority 1974, dated 1978)

Each compound was assayed on soybean (Var. Clark) (assay: effect of haloaniline derivatives on soybean yields at different rates and stages of growth (Table VIII)). Conditions: 1st treatment, 0.25 lbs./A.
Type: in vivo
Procedure: a further experiment was conducted to determine the effect of selected haloaniline derivatives on soybean yields at different rates of application, and at differing stages of growth.
Soybeans (Var. Clark) were planted at the rate of 4 seeds per 6 inch pot in a medium of 1 part humus and 2 parts soil. Two weeks after planting two uniform plants were selected from each pot for treatment. The soybeans were treated weekly with a high analysis liquid fertilizer. The candidate compounds were dissolved in acetone-water (1:1) and applied at three timings as a foliar spray in a carrier volume of 50 gallons per acre using a moving belt sprayer at rates ranging from 0.1 to two lbs. per acre. Six plants were used for each treatment. The beans were harvested eight weeks after the third treatment and the seeds and pods per plant were counted.

Structure (SMILES)	Pods per Plant	Seeds per Plant	Seeds per Pod
O=CNc1cc(Cl)cc(Cl)c1 [XVIII, 3',5'-dichloroformanilide]	1.4	0.0	0.0

Same assay, conditions: 1st treatment, 0.50 lbs./A

Structure (SMILES)	Pods per Plant	Seeds per Plant	Seeds per Pod
O=CNc1cc(Cl)cc(Cl)c1 [XVIII, 3',5'-dichloroformanilide]	0.8	1.0	1.3

Same assay, conditions: 1st treatment, 1.00 lbs./A

Structure (SMILES)	Pods per Plant	Seeds per Plant	Seeds per Pod
O=CNc1cc(Cl)cc(Cl)c1 [XVIII, 3',5'-dichloroformanilide]	0.0	0.0	0.0

Same assay, conditions: 1st treatment, 2.00 lbs./A

Structure (SMILES)	Pods per Plant	Seeds per Plant	Seeds per Pod
O=CNc1cc(Cl)cc(Cl)c1 [XVIII, 3',5'-dichloroformanilide]	0.0	0.0	0.0

Same assay, conditions: 2nd treatment, 0.10 lbs./A

Structure (SMILES)	Pods per Plant	Seeds per Plant	Seeds per Pod
Clc1cc(Cl)cc(NCNc2cc(Cl)cc(Cl)c2)c1 [I, N,N'-Bis[3,5-dichlorophenyl]methanediamine]	24.5	42.7	1.7
Clc1ccc(N=Cc2ccccc2)cc1Cl [XIII, 3,4-Dichloro-N-benzylideneaniline]	13.7	20.5	1.5
O=CNc1cc(Cl)cc(Cl)c1 [XVIII, 3',5'-dichloroformanilide]	16.2	17.5	1.1
Clc1cc(Cl)cc(N=Cc2ccccc2)c1 [IV, 3,5-dichloro-N-benzylideneaniline]	8.3	8.3	1.0

Same assay, conditions: 2nd treatment, 0.30 lbs./A

Structure (SMILES)	Pods per Plant	Seeds per Plant	Seeds per Pod
Clc1cc(Cl)cc(NCNc2cc(Cl)cc(Cl)c2)c1 [I, N,N'-Bis[3,5-dichlorophenyl]methanediamine]	14.5	9.3	0.6
Clc1ccc(N=Cc2ccccc2)cc1Cl [XIII, 3,4-Dichloro-N-benzylideneaniline]	12.0	17.7	1.5
O=CNc1cc(Cl)cc(Cl)c1 [XVIII, 3',5'-dichloroformanilide]	9.2	6.3	0.7
Clc1cc(Cl)cc(N=Cc2ccccc2)c1 [IV, 3,5-dichloro-N-benzylideneaniline]	0.7	1.0	1.5

Same assay, conditions: 2nd treatment, 0.90 lbs./A

Structure (SMILES)	Pods per Plant	Seeds per Plant	Seeds per Pod
Clc1cc(Cl)cc(NCNc2cc(Cl)cc(Cl)c2)c1 [I, N,N'-Bis[3,5-dichlorophenyl]methanediamine]	9.0	4.3	0.5
Clc1ccc(N=Cc2ccccc2)cc1Cl [XIII, 3,4-Dichloro-N-benzylideneaniline]	5.2	6.7	1.3
O=CNc1cc(Cl)cc(Cl)c1 [XVIII, 3',5'-dichloroformanilide]	0.5	0.5	1.0
Clc1cc(Cl)cc(N=Cc2ccccc2)c1 [IV, 3,5-dichloro-N-benzylideneaniline]	2.7	3.2	1.2

Same assay, conditions: 3rd treatment, 0.10 lbs./A

Structure (SMILES)	Pods per Plant	Seeds per Plant	Seeds per Pod
Clc1cc(Cl)cc(NCNc2cc(Cl)cc(Cl)c2)c1 [I, N,N'-Bis[3,5-dichlorophenyl]methanediamine]	7.0	12.8	1.8
Clc1ccc(N=Cc2ccccc2)cc1Cl [XIII, 3,4-Dichloro-N-benzylideneaniline]	5.5	7.8	1.4
O=CNc1cc(Cl)cc(Cl)c1 [XVIII, 3',5'-dichloroformanilide]	9.3	15.2	1.6
Clc1cc(Cl)cc(N=Cc2ccccc2)c1 [IV, 3,5-dichloro-N-benzylideneaniline]	16.5	37.0	2.2

Same assay, conditions: 3rd treatment, 0.30 lbs./A

Structure (SMILES)	Pods per Plant	Seeds per Plant	Seeds per Pod
Clc1cc(Cl)cc(NCNc2cc(Cl)cc(Cl)c2)c1 [I, N,N'-Bis[3,5-dichlorophenyl]methanediamine]	8.3	13.3	1.6
Clc1ccc(N=Cc2ccccc2)cc1Cl [XIII, 3,4-Dichloro-N-benzylideneaniline]	11.0	17.2	1.6
O=CNc1cc(Cl)cc(Cl)c1 [XVIII, 3',5'-dichloroformanilide]	5.2	10.5	2.0
Clc1cc(Cl)cc(N=Cc2ccccc2)c1 [IV, 3,5-dichloro-N-benzylideneaniline]	13.2	23.3	1.7

Same assay, conditions: 3rd treatment, 0.90 lbs./A

Structure (SMILES)	Pods per Plant	Seeds per Plant	Seeds per Pod
Clc1cc(Cl)cc(NCNc2cc(Cl)cc(Cl)c2)c1 [I, N,N'-Bis[3,5-dichlorophenyl]methanediamine]	7.2	13.3	1.5
Clc1ccc(N=Cc2ccccc2)cc1Cl [XIII, 3,4-Dichloro-N-benzylideneaniline]	9.3	16.7	1.8
O=CNc1cc(Cl)cc(Cl)c1 [XVIII, 3',5'-dichloroformanilide]	5.2	9.5	1.8
Clc1cc(Cl)cc(N=Cc2ccccc2)c1 [IV, 3,5-dichloro-N-benzylideneaniline]	19.3	37.7	1.9

The compounds below were run on soybean (Var. Clark) (assay: greenhouse growth regulator test on soybean (Table I)). Conditions: 1/2 lbs/acre foliar spray, two weeks after application.
Type: in vivo
From the text: Limited greenhouse experiments shown that there is promotion of lateral bud growth when compounds are applied at higher concentrations and earlier timings and an increase in soybean pod numbers at lower rates applied just prior to or at the flowering stage. […] Three parameters are reported in Table I to indicate the general spectrum of activity for each evaluated compound including the propensity for releasing lateral bud growth in soybeans. These are: (a) plant height measured as percent inhibition relative to the control; (b) the number of lateral buds per plant; and (c) phytotoxic injury on a scale of 0 to 10 (10 being maximum injury). Sampling compounds were evaluated in the greenhouse in a special growth regulator test. Four to five soybean seeds (Var. Clark) were planted in 4-inch pots with a humus-soil mixture. Two weeks after planting, two uniform plants were selected from each pot for treatment. The candidate compounds were dissolved in acetone-water (1:1), and applied as a foliar spray in a carrier volume of 50 gallons per acre, using a moving belt sprayer at a rate of 1/4, 1/2 and 2 lbs/acre. Six plants were used for each treatment. Two weeks after application, the number of laterals per plant, plant injury (0-10 scale; 0 = no effect, 10 = complete kill,) and the height of each plant were recorded. Untreated plants were used as controls.

Structure (SMILES)	No. Laterals per plant
Clc1cc(Cl)cc(NCNc2cc(Cl)cc(Cl)c2)c1 [I, N,N'-Bis[3,5-dichlorophenyl]methanediamine]	3
Clc1ccc(N=Cc2ccccc2)cc1Cl [XIII, 3,4-Dichloro-N-benzylideneaniline]	4
O=CNc1cc(Cl)cc(Cl)c1 [XVIII, 3',5'-dichloroformanilide]	5
Clc1cc(Cl)cc(N=Cc2ccccc2)c1 [IV, 3,5-dichloro-N-benzylideneaniline]	2

Same assay, conditions: 1/2 lbs/acre; 0-10 scale; 0 = no effect, 10 = complete kill; two weeks after application

Structure (SMILES)	Injury (0-10)
Clc1cc(Cl)cc(NCNc2cc(Cl)cc(Cl)c2)c1 [I, N,N'-Bis[3,5-dichlorophenyl]methanediamine]	0
Clc1ccc(N=Cc2ccccc2)cc1Cl [XIII, 3,4-Dichloro-N-benzylideneaniline]	0
O=CNc1cc(Cl)cc(Cl)c1 [XVIII, 3',5'-dichloroformanilide]	1
Clc1cc(Cl)cc(N=Cc2ccccc2)c1 [IV, 3,5-dichloro-N-benzylideneaniline]	0

Same assay, conditions: 1/4 lbs/acre foliar spray, two weeks after application

Structure (SMILES)	No. Laterals per plant
Clc1cc(Cl)cc(NCNc2cc(Cl)cc(Cl)c2)c1 [I, N,N'-Bis[3,5-dichlorophenyl]methanediamine]	1
Clc1ccc(N=Cc2ccccc2)cc1Cl [XIII, 3,4-Dichloro-N-benzylideneaniline]	2
O=CNc1cc(Cl)cc(Cl)c1 [XVIII, 3',5'-dichloroformanilide]	4
Clc1cc(Cl)cc(N=Cc2ccccc2)c1 [IV, 3,5-dichloro-N-benzylideneaniline]	3

Same assay, conditions: 1/4 lbs/acre; 0-10 scale; 0 = no effect, 10 = complete kill; two weeks after application

Structure (SMILES)	Injury (0-10)
Clc1cc(Cl)cc(NCNc2cc(Cl)cc(Cl)c2)c1 [I, N,N'-Bis[3,5-dichlorophenyl]methanediamine]	0
Clc1ccc(N=Cc2ccccc2)cc1Cl [XIII, 3,4-Dichloro-N-benzylideneaniline]	1
O=CNc1cc(Cl)cc(Cl)c1 [XVIII, 3',5'-dichloroformanilide]	0
Clc1cc(Cl)cc(N=Cc2ccccc2)c1 [IV, 3,5-dichloro-N-benzylideneaniline]	0

Same assay, conditions: 2 lbs/acre foliar spray, two weeks after application

Structure (SMILES)	No. Laterals per plant
Clc1cc(Cl)cc(NCNc2cc(Cl)cc(Cl)c2)c1 [I, N,N'-Bis[3,5-dichlorophenyl]methanediamine]	5
Clc1ccc(N=Cc2ccccc2)cc1Cl [XIII, 3,4-Dichloro-N-benzylideneaniline]	3
O=CNc1cc(Cl)cc(Cl)c1 [XVIII, 3',5'-dichloroformanilide]	5
Clc1cc(Cl)cc(N=Cc2ccccc2)c1 [IV, 3,5-dichloro-N-benzylideneaniline]	5

Same assay, conditions: 2 lbs/acre; 0-10 scale; 0 = no effect, 10 = complete kill; two weeks after application

Structure (SMILES)	Injury (0-10)
Clc1cc(Cl)cc(NCNc2cc(Cl)cc(Cl)c2)c1 [I, N,N'-Bis[3,5-dichlorophenyl]methanediamine]	1
Clc1ccc(N=Cc2ccccc2)cc1Cl [XIII, 3,4-Dichloro-N-benzylideneaniline]	4
O=CNc1cc(Cl)cc(Cl)c1 [XVIII, 3',5'-dichloroformanilide]	1
Clc1cc(Cl)cc(N=Cc2ccccc2)c1 [IV, 3,5-dichloro-N-benzylideneaniline]	1

Same assay, conditions: Glycine max, foliar, 336 h, 1/2 lbs/acre foliar spray, two weeks after application, relative to control; read-out: Height (% inhib.)

Structure (SMILES)	pest or weed control [%]
Clc1cc(Cl)cc(NCNc2cc(Cl)cc(Cl)c2)c1 [I, N,N'-Bis[3,5-dichlorophenyl]methanediamine]	4
Clc1ccc(N=Cc2ccccc2)cc1Cl [XIII, 3,4-Dichloro-N-benzylideneaniline]	9
O=CNc1cc(Cl)cc(Cl)c1 [XVIII, 3',5'-dichloroformanilide]	11
Clc1cc(Cl)cc(N=Cc2ccccc2)c1 [IV, 3,5-dichloro-N-benzylideneaniline]	5

Same assay, conditions: Glycine max, foliar, 336 h, 1/4 lbs/acre foliar spray, two weeks after application, relative to control; read-out: Height (% inhib.)

Structure (SMILES)	pest or weed control [%]
Clc1cc(Cl)cc(NCNc2cc(Cl)cc(Cl)c2)c1 [I, N,N'-Bis[3,5-dichlorophenyl]methanediamine]	5
Clc1ccc(N=Cc2ccccc2)cc1Cl [XIII, 3,4-Dichloro-N-benzylideneaniline]	17
O=CNc1cc(Cl)cc(Cl)c1 [XVIII, 3',5'-dichloroformanilide]	3
Clc1cc(Cl)cc(N=Cc2ccccc2)c1 [IV, 3,5-dichloro-N-benzylideneaniline]	7

Same assay, conditions: Glycine max, foliar, 336 h, 2 lbs/acre foliar spray, two weeks after application, relative to control; read-out: Height (% inhib.)

Structure (SMILES)	pest or weed control at 2241.7 g/ha [%]
Clc1cc(Cl)cc(NCNc2cc(Cl)cc(Cl)c2)c1 [I, N,N'-Bis[3,5-dichlorophenyl]methanediamine]	17
Clc1ccc(N=Cc2ccccc2)cc1Cl [XIII, 3,4-Dichloro-N-benzylideneaniline]	19
O=CNc1cc(Cl)cc(Cl)c1 [XVIII, 3',5'-dichloroformanilide]	15
Clc1cc(Cl)cc(N=Cc2ccccc2)c1 [IV, 3,5-dichloro-N-benzylideneaniline]	17
